# From patent publication US20260284079A1, “LIPID PRODRUGS OF ALLOPR[…] USES THEREOF” (Seaport Therapeutics, Inc., priority 2023, published 2026)
# Tests used:
# [1] = Multiple ascending dose (MAD) study, PK (Example 1 Part 3); conditions: allopregnanolone and combined allopregnanolone
# [2] = Food effect study, PK (Example 1 Part 2)
# [3] = system: salivary cortisol levels; assay: Trier Social Stress Test (TSST), salivary cortisol (Example 2); assay type: in vivo, human
# Method: A double-blind, placebo-controlled study was performed in 80 healthy participants to determine the effects of a single dose of Compound 1 in a validated and standardized behavioral challenge, the Trier Social Stress Test (TSST). The TSST is a reliable behavioral model used to examine the neurobiological response to acute stress in humans, whereby an acute stress (and associated acute stress response) is induced under experimentally controlled conditions. The TSST induces stress through public speaking. It incorporates social evaluation and unpredictability, by obliging the person to speak in front of an unresponsive audience and is further followed by a surprise mental arithmetic test. The TSST combines elements of a social-evaluative threat and uncontrollability to produce a consistent and robust physiological and psychological stress response in humans. On the day of the study, the participant was tasked with a speech prompt, for which they had 3 minutes to prepare. The participant was then required to present the speech for 5 minutes to a panel while under the pretense of being recorded. Following the speech, participants were given an unexpected mental arithmetic task. The TSST is more fully described in Allen A et al., Neurobiol. Stress (2017), February; 6:113-126.
# The study included a validation cohort and a randomized cohort. The validation cohort (n=10) was given placebo for the purposes of validating the TSST and study endpoints. The randomized cohort […] were randomized and stratified by sex to placebo or 375 mg of Compound 1 in a 1:1 ratio. The cohorts are described in Table 14. An overview of the TSST study design is also depicted in FIG. 4C.
# Compound 1 was formulated in combination with excipients Peceol™ (glyceryl monooleate), Kolliphor® RH40 (macrogolglycerol hydroxystearate) and super-refined sesame oil as a clear to yellow viscous solution. Each gram of formulation contains 300 mg of Compound 1, 189 mg of Peceol™, 336 mg Kolliphor® RH40, and 175 mg of super-refined sesame oil. To prepare the final dosage, the required quantity is manually filled into size 17.5 oblong capsules. The placebo contained vehicle only, i.e., the above formulation without Compound 1.
# The objective of the study was to evaluate the efficacy of Compound 1 vs. placebo in blunting the response to endpoints measured during and after the TSST procedure. The primary efficacy endpoint was the change from baseline (before TSST procedure) to the peak (maximum change) in salivary cortisol levels as measured before, during, and after the TSST procedure. The primary outcome for determining this was salivary cortisol levels. The key secondary outcomes were be the Numerical Rating Scale (NRS) for stress, anxiety, fear, embarrassment, and excitement. Additional secondary outcomes were the State Trait Anxiety Index (STAI), and blood pressure. Safety and tolerability (i.e., incidence, severity, and duration of treatment-emergent adverse events (TEAEs), serious adverse events (SAEs), and incidence of other clinically relevant signs) were also monitored. Prior to the TSST, a post-dose sample was collected for pharmacokinetic analysis.
# To normalize for food effects, participants were served a standardized meal to be consumed approximately 30 minutes prior to dosing with Compound 1. Compound 1 was administered with 240 mL of RT water ~3-4 hours prior to the start of the TSST.
# Cortisol levels (including, for example, salivary cortisol levels) are a robust and sensitive marker of stress and the stress hormone response. Salivary cortisol concentrations were collected and measured throughout the study, with the primary endpoint being the maximum change from baseline (pre-TSST).
structure (smiles),measurement,setting,value
CCCCCCCC(=O)OCC(COC(=O)CCCCCCC)OC(=O)CC(C)CC(=O)OCOC(=O)O[C@@H]1CC[C@@]2(C)[C@@H](CC[C@@H]3[C@@H]2CC[C@]2(C)[C@@H](C(C)=O)CC[C@@H]32)C1 (some centres unmarked) [Compound 1],accumulation upon multiple dosing,[1]; once daily,minimal accumulation
same,time to steady state,[1]; once daily administration,Day 2 and Day 3
same,"maximal concentrations and exposure values, combined allopregnanolone compared to allopregnanolone",[2]; 140 mg food effect study,approximately 15 times higher
same,"increase of AUC0-t, AUC0-inf and Cmax in fed (LF) group compared to fasted and fed (HF) groups","[2]; allopregnanolone and combined allopregnanolone, 140 mg",1.3 to 1.5 fold
same,"decrease in salivary cortisol levels versus placebo, maximum non-transformed mean",[3]; 375 mg,~ 2.2 ×
same,time during which blunting of salivary cortisol was significantly different from placebo,[3]; 375 mg,up to 30 minutes post-end of TSST
same,"treatment effect size versus placebo, Cohen's d",[3]; 375 mg,0.72
same,reduction in salivary cortisol levels post-TSST,"[3]; 375 mg, 10 minutes post-TSST",62.8%
same,reduction in salivary cortisol levels post-TSST,"[3]; 375 mg, 60 minutes post-TSST",45.5%
same,mean reduction in salivary cortisol levels post-TSST,"[3]; 375 mg, across all time points",54.4%
same,"blunting of increases in salivary cortisol levels, LSMean change from baseline (pre-TSST)",[3]; single 375 mg oral dose ~3-4 hours before TSST,partial blunting
